Results as given in patent US20210300924A1, “5-[6-[[3-(4,5,6,7-TETRAHYDROPYRAZOLO[4,3-C]PYRIDIN-1-YL)AZETIDIN-1-YL]METHYL]MORPHOLIN-4-YL]QUINOLINE-8-CARBONITRILE DERIVATIVES AND SIMILAR COMPOUNDS AS TLR7-9 ANTAGONISTS FOR TREATING SYSTEMIC LUPUS ERYTHEMATOSUS” (Hoffmann-La Roche Inc., priority 2018, published 2021).

Tests used:
CYP2D6 = target: T1, CYP2D6 (Homo sapiens, UniProt P10635); assay: CYP inhibition assay in human liver microsome; format: in vitro ADME; details: human liver microsomes, probe dextromethorphan, dextromethorphan substrate, percentage inhibition <0: not or weak inhibitor, read-out: CYP 2D6 inhibition % @ 10 μM
T1 construct: tissue BD-Gentest 452117; host or cells: human liver microsomes
Description: This is a high throughput screening assay used for assessment of reversible inhibition of CYP2D6 activity of test compounds in human liver microsome (HLM) in early discovery stage.
10 mM DMSO stock solutions of test compounds were diluted in DMSO to generate 2 mM intermediate stock solution. 250 nL of intermediate stock solution were transferred in duplicate into 3 separate 384 well microtitre plates (assay-ready plates). A mixture of HLM and each substrate was made up. 45 μL of HLM substrate mix was then transferred to each well of an assay ready plate and mixed. The negative (solvent) and positive control (standard inhibitor for CYP 2D6) were included in each assay ready plate. The assay ready plate was warmed to 37° C. in an incubator over 10 minutes. 5 μL pre-warmed NADPH regenerating system was added to each incubation well to start the reaction. Final incubation volume was 50 μL. The assay plate then was placed back in the 37° C. incubator. After 10 minutes incubation, incubates were quenched by addition of 50 μL 100% acetonitrile containing internal standards (20 ng/mL D3-Dextrorphan). The supernatants were collected for RapidFire/MS/MS analysis.
RapidFire online solid phase extraction/sample injection system (Agilent) coupled with API4000 triple quadrupole mass spectrometer (AB Sciex) were used for sample analysis. The mobile phase composed of acetonitrile and water supplemented with 0.1% formic acid. A C4 solid phase extraction cartridge is used for sample separation. MS detection is achieved in positive ion MRM mode.
Peak areas for substrate, metabolite and internal standard are determined using the RapidFire integrator software (version 3.6.12009.12296). Peak area ratios (PAR) of metabolite and internal standard (stable-labelled metabolite) are then calculated. The measurement window for each experiment is then defined:
PAR (0% activity)=average PAR for all incubations containing concentrated inhibitor;
Par (100% activity)=average PAR for all incubations containing no inhibitor (DMSO controls);
% Activity (test inhibitor)=
[PAR(test inhibitor)−PAR(0% activity)]/[PAR(100% activity)−PAR(0% activity)]; % Inhibition (test inhibitor)=100−% Activity (test inhibitor).

human TLR7 = target: T2, human TLR7 (Homo sapiens, UniProt Q9NYK1); assay: HEK293-Blue-hTLR-7 cells assay; format: cell-based; details: HEK293-Blue-hTLR7 cells, R848 stimulation, 20 hrs, SEAP reporter; read-out: HEK/hTLR7 IC50
T2 construct: host or cells: HEK293 (HEK-Blue hTLR7)
T2 sequence (Q9NYK1 27-1049): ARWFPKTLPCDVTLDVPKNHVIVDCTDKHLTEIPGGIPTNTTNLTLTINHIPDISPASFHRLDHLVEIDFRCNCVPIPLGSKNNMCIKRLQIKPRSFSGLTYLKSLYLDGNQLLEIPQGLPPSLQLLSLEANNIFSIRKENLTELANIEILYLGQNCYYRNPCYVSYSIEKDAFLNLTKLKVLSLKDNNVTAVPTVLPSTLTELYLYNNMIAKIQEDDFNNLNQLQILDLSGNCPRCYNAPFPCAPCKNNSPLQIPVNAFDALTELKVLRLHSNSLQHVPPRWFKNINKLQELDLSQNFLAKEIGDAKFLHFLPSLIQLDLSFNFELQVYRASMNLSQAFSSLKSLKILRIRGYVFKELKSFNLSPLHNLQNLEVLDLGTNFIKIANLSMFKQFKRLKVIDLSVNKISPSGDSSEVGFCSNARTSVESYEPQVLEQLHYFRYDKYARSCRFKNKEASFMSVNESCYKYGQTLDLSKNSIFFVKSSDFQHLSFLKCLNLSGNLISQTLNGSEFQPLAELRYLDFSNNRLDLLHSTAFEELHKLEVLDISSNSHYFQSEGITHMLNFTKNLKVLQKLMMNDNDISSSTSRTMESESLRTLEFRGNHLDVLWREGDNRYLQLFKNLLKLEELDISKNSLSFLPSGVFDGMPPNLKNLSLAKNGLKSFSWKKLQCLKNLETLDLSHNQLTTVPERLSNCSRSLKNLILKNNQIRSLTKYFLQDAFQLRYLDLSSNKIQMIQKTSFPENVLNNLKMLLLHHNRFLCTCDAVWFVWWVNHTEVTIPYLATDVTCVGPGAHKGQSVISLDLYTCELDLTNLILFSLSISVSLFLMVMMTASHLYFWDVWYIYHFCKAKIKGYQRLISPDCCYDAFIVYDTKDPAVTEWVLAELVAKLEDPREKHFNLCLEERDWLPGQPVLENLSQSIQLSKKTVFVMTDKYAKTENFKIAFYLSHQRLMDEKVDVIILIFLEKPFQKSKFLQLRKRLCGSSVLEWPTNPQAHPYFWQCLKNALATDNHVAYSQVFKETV
Description: HEK293-Blue-hTLR-7 cells assay:
A stable HEK293-Blue-hTLR-7 cell line was purchased from InvivoGen (Cat. #: hkb-htlr7, San Diego, Calif., USA). These cells were originally designed for studying the stimulation of human TLR7 by monitoring the activation of NF-κB. A SEAP (secreted embryonic alkaline phosphatase) reporter gene was placed under the control of the IFN-β minimal promoter fused to five NF-κB and AP-1-binding sites. The SEAP was induced by activating NF-κB and AP-1 via stimulating HEK-Blue hTLR7 cells with TLR7 ligands. Therefore the reporter expression was declined by TLR7 antagonist under the stimulation of a ligand, such as R848 (Resiquimod), for incubation of 20 hrs. The cell culture supernatant SEAP reporter activity was determined using QUANTI-Blue™ kit (Cat. #: rep-qb1, Invivogen, San Diego, Ca, USA) at a wavelength of 640 nm, a detection medium that turns purple or blue in the presence of alkaline phosphatase.
HEK293-Blue-hTLR7 cells were incubated at a density of 250,000-450,000 cells/mL in a volume of 170 μL in a 96-well plate in Dulbecco's Modified Eagle's medium (DMEM) containing 4.5 g/L glucose, 50 U/mL penicillin, […], […], 2 mM L-glutamine, 10% (v/v) heat-inactivated fetal bovine serum with addition of 20 μL test compound in a serial dilution in the presence of final DMSO at 1% and 10 μL of 20 uM R848 in above DMEM, perform incubation under 37° C. in a CO2 incubator for 20 hrs. Then 20 μL of the supernatant from each well was incubated with 180 μL Quanti-blue substrate solution at 37° C. for 2 hrs and the absorbance was read at 620˜655 nm using a spectrophotometer. The signaling pathway that TLR7 activation leads to downstream NF-κB activation has been widely accepted, and therefore similar reporter assay was modified for evaluating TLR7 antagonist.

T1 sequence (P10635 whole entry): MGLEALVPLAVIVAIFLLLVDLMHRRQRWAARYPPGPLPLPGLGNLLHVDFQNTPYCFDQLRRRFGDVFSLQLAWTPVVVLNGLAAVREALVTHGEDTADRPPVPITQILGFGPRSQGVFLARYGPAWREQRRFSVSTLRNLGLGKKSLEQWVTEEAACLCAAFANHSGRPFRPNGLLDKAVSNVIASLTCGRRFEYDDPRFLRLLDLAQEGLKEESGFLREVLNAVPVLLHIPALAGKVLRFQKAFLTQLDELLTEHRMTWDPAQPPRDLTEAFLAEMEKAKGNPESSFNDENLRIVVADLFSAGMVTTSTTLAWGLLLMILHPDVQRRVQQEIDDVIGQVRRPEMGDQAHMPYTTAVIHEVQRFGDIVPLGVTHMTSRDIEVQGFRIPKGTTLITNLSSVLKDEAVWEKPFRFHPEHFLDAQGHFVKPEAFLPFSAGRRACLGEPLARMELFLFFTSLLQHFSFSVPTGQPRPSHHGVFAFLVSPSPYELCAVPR

| SMILES | inhibition at 10 min, 10 µM (CYP2D6) [%] | IC50 (human TLR7) [nM] |
| --- | --- | --- |
| CCN1CCc2cn(C3CN(C[C@H]4CN(c5ccc(C#N)c6ncccc56)C[C@@H](C)O4)C3)nc2C1 [Example 7, 5-[(2S,6R)-2-[[3-(6-ethyl-5,7-dihydro-4H-pyrazolo[3,4-c]pyridin-2-yl)azetidin-1-yl]methyl]-6-methyl-morpholin-4-yl]quinoline-8-carbonitrile] | -19.5 | 8 |
| CC(C)N1CCc2cn(C3CN(C[C@H]4CN(c5ccc(C#N)c6ncccc56)C[C@@H](C)O4)C3)nc2C1 [Example 9, 5-[(2S,6R)-2-[[3-(6-isopropyl-5,7-dihydro-4H-pyrazolo[3,4-c]pyridin-2-yl)azetidin-1-yl]methyl]-6-methyl-morpholin-4-yl]quinoline-8-carbonitrile] | 15 | 12 |
| C[C@@H]1CN(c2ccc(C#N)c3ncccc23)C[C@H](CN2CC(n3cc4c(n3)CNC4)C2)O1 [Example 11, 5-[(2S,6R)-2-[[3-(5,6-dihydro-4H-pyrrolo[3,4-c]pyrazol-2-yl)azetidin-1-yl]methyl]-6-methyl-morpholin-4-yl]quinoline-8-carbonitrile] | -6 | 17 |
| Cc1nn(C2CN(C[C@H]3CN(c4ccc(C#N)c5ncccc45)C[C@@H](C)O3)C2)c2c1CNCC2 [Example 12, 5-[(2R,6S)-2-methyl-6-[[3-(3-methyl-4,5,6,7-tetrahydropyrazolo[4,3-c]pyridin-1-yl)azetidin-1-yl]methyl]morpholin-4-yl]quinoline-8-carbonitrile] | 6 | 15 |
| C[C@@H]1Cc2c(cnn2C2CN(C[C@H]3CN(c4ccc(C#N)c5ncccc45)C[C@@H](C)O3)C2)CN1 [Example 16, 5-[(2R,6S)-2-methyl-6-[[3-[(6R)-6-methyl-4,5,6,7-tetrahydropyrazolo[4,3-c]pyridin-1-yl]azetidin-1-yl]methyl]morpholin-4-yl]quinoline-8-carbonitrile] | 8 | 4 |
| C[C@@H]1Cc2nn(C3CN(C[C@H]4CN(c5ccc(C#N)c6ncccc56)C[C@@H](C)O4)C3)cc2CN1 [Example 17, 5-[(2R,6S)-2-methyl-6-[[3-[(6R)-6-methyl-4,5,6,7-tetrahydropyrazolo[4,3-c]pyridin-2-yl]azetidin-1-yl]methyl]morpholin-4-yl]quinoline-8-carbonitrile] | 1.5 | 4 |
| C[C@@H]1CN(c2ccc(C#N)c3ncccc23)C[C@H](CN2CC(n3ncc4c3C[C@H](C)NC4)C2)O1 [Example 18, 5-[(2R,6S)-2-methyl-6-[[3-[(6S)-6-methyl-4,5,6,7-tetrahydropyrazolo[4,3-c]pyridin-1-yl]azetidin-1-yl]methyl]morpholin-4-yl]quinoline-8-carbonitrile] | -2.5 | 17 |

More lines, now with the values ahead:

| inhibition at 10 min, 10 µM (CYP2D6) [%] | IC50 (human TLR7) [nM] | SMILES |
| --- | --- | --- |
| -1.5 | 4 | C[C@@H]1CN(c2ccc(C#N)c3ncccc23)C[C@H](CN2CC(n3cc4c(n3)CN(C)CC4)C2)O1 [Example 5, 5-[(2R,6S)-2-methyl-6-[[3-(6-methyl-5,7-dihydro-4H-pyrazolo[3,4-c]pyridin-2-yl)azetidin-1-yl]methyl]morpholin-4-yl]quinoline-8-carbonitrile] |
| 8.5 | 12 | CCN1CCc2cnn(C3CN(C[C@H]4CN(c5ccc(C#N)c6ncccc56)C[C@@H](C)O4)C3)c2C1 [Example 6, 5-[(2S,6R)-2-[[3-(6-ethyl-5,7-dihydro-4H-pyrazolo[3,4-c]pyridin-1-yl)azetidin-1-yl]methyl]-6-methyl-morpholin-4-yl]quinoline-8-carbonitrile] |
| 11 | 18 | CC(C)N1CCc2cnn(C3CN(C[C@H]4CN(c5ccc(C#N)c6ncccc56)C[C@@H](C)O4)C3)c2C1 [Example 8, 5-[(2S,6R)-2-[[3-(6-isopropyl-5,7-dihydro-4H-pyrazolo[3,4-c]pyridin-1-yl)azetidin-1-yl]methyl]-6-methyl-morpholin-4-yl]quinoline-8-carbonitrile] |
| 3 | 14 | Cc1c2c(nn1C1CN(C[C@H]3CN(c4ccc(C#N)c5ncccc45)C[C@@H](C)O3)C1)CCNC2 [Example 13, 5-[(2R,6S)-2-methyl-6-[[3-(3-methyl-4,5,6,7-tetrahydropyrazolo[4,3-c]pyridin-2-yl)azetidin-1-yl]methyl]morpholin-4-yl]quinoline-8-carbonitrile] |
| -10.5 | 9 | Cc1c2c(nn1C1CN(C[C@H]3CN(c4ccc(C#N)c5ncccc45)C[C@@H](C)O3)C1)CCN(C)C2 [Example 15, 5-[(2S,6R)-2-[[3-(3,5-dimethyl-6,7-dihydro-4H-pyrazolo[4,3-c]pyridin-2-yl)azetidin-1-yl]methyl]-6-methyl-morpholin-4-yl]quinoline-8-carbonitrile] |
| -2.5 | 19 | C[C@@H]1CN(c2ccc(C#N)c3ncccc23)C[C@H](CN2CC(n3cc4c(n3)C[C@H](C)NC4)C2)O1 [Example 19, 5-[(2R,6S)-2-methyl-6-[[3-[(6S)-6-methyl-4,5,6,7-tetrahydropyrazolo[4,3-c]pyridin-2-yl]azetidin-1-yl]methyl]morpholin-4-yl]quinoline-8-carbonitrile] |
| -6 | 5 | C[C@@H]1CN(c2ccc(C#N)c3ncccc23)C[C@H](CN2CC(n3ncc4c3CCN[C@@H]4C)C2)O1 [Example 20, 5-[(2R,6S)-2-methyl-6-[[3-[(4R)-4-methyl-4,5,6,7-tetrahydropyrazolo[4,3-c]pyridin-1-yl]azetidin-1-yl]methyl]morpholin-4-yl]quinoline-8-carbonitrile] |
